Experimental data reported in US7704976B2, “Use of N-acetyl-D-glucosamine for preparing medicines for urogenital tract infection's treatment and prevention” (Third Military Medical University, Chinese People's …, priority 2002, dated 2010).

What was measured:
candida albicans = assay: Clinic test, candida albicans patients; format: in vivo, human; settings: 2% aerosol topically sprayed to infected areas
Description: (§1) • 1. 170 patients suffering various venereal diseases were picked out, including 50 patients suffering gonorrhea, 50 patients suffering syphilis, 20 patients suffering condyloma acuminatum virus infection, 40 patients suffering trichomonas vaginalis infection, and 10 patients suffering candida albicans. 2% N-acetyl-D-glucosamine aerosol was topically sprayed to infected areas, and the effects of the compound of formula (I) for treatment of urogenital tract infections were determined by smearing and microscopic examination, and by isolation and culture.
(§2) Observation of therapeutical effect of N-acetyl-D-glucosamine for treatment of urogenital tract infections

[1] = in vivo
From the text: II. Toxicological Test of the Compound of Formula (I), Including:
• 1. Acute toxicity test: including tests of oral administration, intravenous injection administration, and maximum limit amount for administration. • 2. Ames test; • 3. Micronucleus test of mouse bone marrow cell; • 4. Abnormality test of mouse sperm; • 5. Aberration test of mouse testis chromosome; • 6. Chronic lethal test; • 7. Subchronic toxicity (feed for 90 days) test; • 8. Traditional deformity-inducing test.

[2] = tested on: condyloma acuminatum virus infection; assay: Clinic test, condyloma acuminatum virus infection patients; format: in vivo, human; settings: 2% aerosol topically sprayed to infected areas
Description: as §1, §2

Gonorrhea = assay: Clinic test, gonorrhea patients; format: in vivo, human; settings: 2% aerosol topically sprayed to infected areas
Description: as §1, §2

bacteria = assay: Test of suppressing bacteria; format: cell-based
From the text: (§3) III. Tests of Effect for Suppressing Bacterial Transplantation
(§4) • 1. Test of effect for suppressing bacillus pyocyaneus transplantation on skin • 2. Test of suppressing bacteria

Proteus Mirabilis = assay: Promoting wave test (bio-wave model on LB plate); format: cell-based; settings: final concentration of 0.5% on LB plate, 37° C.
From the text: 1. […] 1.3 Experimental Method:

[3] = tested on: various urogenital tract infections
[4] = tested on: trichomonas vaginalis infection; assay: Clinic test, trichomonas vaginalis infection patients; format: in vivo, human; settings: 2% aerosol topically sprayed to infected areas
Description: as §1, §2

bacillus pyocyaneus = assay: Test of effect for suppressing bacillus pyocyaneus transplantation on skin
From the text: as §3, §4

Syphilis = assay: Clinic test, syphilis patients; format: in vivo, human; settings: 2% aerosol topically sprayed to infected areas
Description: as §1, §2

## CC(=O)N[C@H]1C(O)O[C@H](CO)[C@@H](O)[C@@H]1O (stereo partly drawn) [N-acetyl-D-glucosamine]
Candida albicans
  Effective rate (%): 90%
  Ineffective rate (%): 10%
[1]
  dosage at which acute toxicosis reaction had not appeared: more than 2 g/kg
[2]
  Effective rate (%): 80%
  Ineffective rate (%): 20%
Gonorrhea
  Effective rate (%): 90%
  Ineffective rate (%): 10%
bacteria
  bactericidal or bacteriostasis effect: essentially exhibited no bactericidal or bacteriostasis effect
Proteus Mirabilis
  promoting wave function (ring pattern versus control): many fine waves on each ring emerged
[3]
  effective rate for treatment of various urogenital tract infections: 79%
[4]
  Effective rate (%): 75%
  Ineffective rate (%): 25%
Bacillus pyocyaneus
  transplantation and growth of bacillus pyocyaneus: suppressed the transplantation and growth of bacillus pyocyaneus
Syphilis
  Effective rate (%): 60%
  Ineffective rate (%): 40%
